Format in all cases: subcellular
In assay [1] the target is Bacterial 70S ribosome. The experiment in a line: Binding affinity to Escherichia coli ribosomes assessed as apparent inhibition constant by scintillation counter analysis. As to conditions: read-out: Ki(app).
Assay [2] concerns the target Bacterial 70S ribosome (Bacteria) (UniProt P0A7V0+P60723+P0AG67+P0A7R5+P0A7R9+P0A7S3+P0A7S9+P0AG59+P0ADZ4+P0A7T3+P0AG63+P0A7T7+P0A7U3+P0A7U7+P68679+P0A7V3+P0A7V8+P0A7W1+P02358+P02359+P0A7W7+P0A7X3+P0A7J3+P0A7J7+P0AA10+P0ADY3+P02413+P0ADY7+P0AG44+P0C018+P0A7K6+P0A7L0+P0A7L3+P0AG48+P61175+P0ADZ0+P60624+P68919+P0A7L8+P0A7M2+P0A7M6+P60422+P0AG51+P0A7N1+P0A7M9+P0A7N4+P0A7N9+P0A7P5+P0A7Q1+Q2EEQ2+P0A7Q6+P60438+P62399+P0AG55+P0A7K2). The experiment in a line: Potency index, ratio of clindamycin Ki(app) to test compound Ki(app) for binding affinity to Escherichia coli ribosomes.

Assay [3] concerns the target Bacterial 70S ribosome. The experiment in a line: Binding affinity to Escherichia coli ribosomes assessed as apparent dissociation constant by scintillation counter analysis. Particulars: read-out: Kd(app).

As to `CCC[C@@H]1C[C@@H](C(=O)N[C@@H]([C@H]2O[C@H](SC)[C@H](O)[C@@H](O)[C@H]2O)[C@H](C)Cl)N(C)C1` [CLINDAMYCIN], on Bacterial 70S ribosome [1], the Ki is 2700 nM.

With `CS[C@H]1O[C@H]([C@H](NC(=O)[C@H]2NC[C@@H]3C[C@H](CC(C)C)CCO[C@H]32)[C@H](C)Cl)[C@H](O)[C@H](O)[C@H]1O`, the Ki on Bacterial 70S ribosome [1] turned out to be 41 nM. For the same compound, the Ratio Ki(app) in assay [2] came out at 70. For the same compound, at Bacterial 70S ribosome [3], the Kd came out at 34 nM.
